Laboratory results reported in US5391540A, “Substituted pyridine compounds” (Rohm and Haas Company, priority 1993, dated 1995).

Tests used:
Type in all cases: in vivo
Downy Brome = test: Pre-emergent herbicidal activity (Table A); details: Bromus tectorum, pre-emergence, Dobr, 11.2 kg/ha, 10-14 days, read-out: herbicidal rating (% inhibition)
Outline: (§1)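 Percent inhibition per species, scored on a rating scale, after pre-emergent soil incorporation: test compound in acetone or water carrier mixed into cover soil, layered over seeded topsoil or vegetative propagules.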

Yellow Nutsedge = test: Pre-emergent herbicidal activity (Table A); details: Cyperus, pre-emergence, Yens, 11.2 kg/ha, 10-14 days, read-out: herbicidal rating (% inhibition)
Outline: as §1

Barnyardgrass = test: Pre-emergent herbicidal activity (Table A); details: Echinochloa crus-galli, pre-emergence, Bygr, 11.2 kg/ha, 10-14 days, read-out: herbicidal rating (% inhibition)
Outline: as §1

Velvetleaf = test: Pre-emergent herbicidal activity (Table A); details: Abutilon theophrasti, pre-emergence, Vele, 11.2 kg/ha, 10-14 days, read-out: herbicidal rating (% inhibition)
Outline: as §1

Cocklebur = test: Pre-emergent herbicidal activity (Table A); details: Xanthium strumarium, pre-emergence, Cobu, 11.2 kg/ha, 10-14 days, read-out: herbicidal rating (% inhibition)
Outline: as §1

Morningglory = test: Pre-emergent herbicidal activity (Table A); details: Ipomoea, pre-emergence, Mogl, 11.2 kg/ha, 10-14 days, read-out: herbicidal rating (% inhibition)
Outline: as §1

Prmi = test: plant injury after spraying emerged plants (Table D); parameters: scale not given here
From the text: (§2) Topsoil (silt loam) is sieved through a screen having 1.27 cm openings. […] This mixture is steam sterilized and then placed in aluminum pans 6.985 cm deep having ten holes in the bottom each 0.635 cm in diameter. The soil mixture is compacted to a depth of 1.27 cm. from the top of the pan. A predetermined number of seeds of each of several dicotyledonous and monocotyledonous annual plant species and/or vegetative propagules for the perennial plant species are placed on the soil and pressed into the soil surface. The seeds and/or vegetative propagules are covered with 1.27 cm of a mixture of 50% topsoil and 50% of a mixture of Canadian sphagnum peat moss, vermiculite and a wetting agent. The pans are then placed on a capillary mat on a greenhouse bench and subirrigated as needed.
(§3) In the following Table D the legends used to identify the plant species are the same as those used in the preceding Table B.

Rice = test: as above; parameters: scale not given here
From the text: as §2, §3

Corn = test: as above; parameters: scale not given here
From the text: as §2, §3

Grso = test: as above; parameters: scale not given here
From the text: as §2, §3

Sobe = test: as above; parameters: scale not given here
From the text: as §2, §3

Whez = test: as above; parameters: scale not given here
From the text: as §2, §3

Bygr = test: as above; parameters: scale not given here
From the text: as §2, §3

Mogl = test: as above; parameters: scale not given here
From the text: as §2, §3

Grft = test: as above; parameters: scale not given here
From the text: as §2, §3

Lacg = test: as above; parameters: scale not given here
From the text: as §2, §3

Cobu = test: as above; parameters: scale not given here
From the text: as §2, §3

COC(=O)c1c(OC)nc(C(F)(F)F)c(-c2nnc(C)o2)c1CC(C)C [Compound 103, 3-pyridinecarboxylic acid, 2-methoxy-5-(5-methy1-1,3,4-oxadiazo1-2-yl)-4-(2-methylpropyl)-6-(trifluoromethyl)-, methyl ester]
0 to 24%: inhibition at 11200 g/ha (Yellow Nutsedge) | inhibition at 11200 g/ha (Cocklebur)
1: plant injury rating, Mogl (Mogl; 0.2803 kg/ha) | plant injury rating, Mogl (Mogl; 1.1219 kg/ha)
75 to 100%: inhibition at 11200 g/ha (Barnyardgrass) | inhibition at 11200 g/ha (Velvetleaf) | inhibition at 11200 g/ha (Morningglory)
2: plant injury rating, Grso (Grso; 5.6050 kg/ha) | plant injury rating, Sobe (Sobe; 5.6050 kg/ha) | plant injury rating, Mogl (Mogl; 5.6050 kg/ha) | plant injury rating, Lacg (Lacg; 5.6050 kg/ha)
50 to 74%: inhibition at 11200 g/ha (Downy Brome)
0: plant injury rating, Prmi (Prmi; 0.0701 kg/ha) | plant injury rating, Prmi (Prmi; 0.2803 kg/ha) | plant injury rating, Prmi (Prmi; 1.1219 kg/ha) | plant injury rating, Prmi (Prmi; 5.6050 kg/ha) | plant injury rating, Rice (Rice; 0.0701 kg/ha) | plant injury rating, Rice (Rice; 0.2803 kg/ha) | plant injury rating, Rice (Rice; 1.1219 kg/ha) | plant injury rating, Rice (Rice; 5.6050 kg/ha) | plant injury rating, Corn (Corn; 0.0701 kg/ha) | plant injury rating, Corn (Corn; 0.2803 kg/ha) | plant injury rating, Grso (Grso; 0.0701 kg/ha) | plant injury rating, Grso (Grso; 0.2803 kg/ha) | plant injury rating, Grso (Grso; 1.1219 kg/ha) | plant injury rating, Sobe (Sobe; 0.0701 kg/ha) | plant injury rating, Sobe (Sobe; 0.2803 kg/ha) | plant injury rating, Sobe (Sobe; 1.1219 kg/ha) | plant injury rating, Whez (Whez; 0.0701 kg/ha) | plant injury rating, Whez (Whez; 0.2803 kg/ha) | plant injury rating, Whez (Whez; 1.1219 kg/ha) | plant injury rating, Whez (Whez; 5.6050 kg/ha) | plant injury rating, Bygr (Bygr; 0.0701 kg/ha) | plant injury rating, Bygr (Bygr; 0.2803 kg/ha) | plant injury rating, Bygr (Bygr; 1.1219 kg/ha) | plant injury rating, Bygr (Bygr; 5.6050 kg/ha) | plant injury rating, Mogl (Mogl; 0.0701 kg/ha) | plant injury rating, Grft (Grft; 0.0701 kg/ha) | plant injury rating, Grft (Grft; 0.2803 kg/ha) | plant injury rating, Grft (Grft; 1.1219 kg/ha) | plant injury rating, Grft (Grft; 5.6050 kg/ha) | plant injury rating, Lacg (Lacg; 0.0701 kg/ha) | plant injury rating, Lacg (Lacg; 0.2803 kg/ha) | plant injury rating, Lacg (Lacg; 1.1219 kg/ha) | plant injury rating, Cobu (Cobu; 0.0701 kg/ha) | plant injury rating, Cobu (Cobu; 0.2803 kg/ha) | plant injury rating, Cobu (Cobu; 1.1219 kg/ha) | plant injury rating, Cobu (Cobu; 5.6050 kg/ha)
3: plant injury rating, Corn (Corn; 1.1219 kg/ha) | plant injury rating, Corn (Corn; 5.6050 kg/ha)

COC(=O)c1c(OC)nc(C(F)(F)F)c(C(=O)n2cccn2)c1CC1CC1 [Compound 116, 3-pyridinecarboxylic acid, 4-(cyclopropylmethyl)-2-methoxy-5-(1H-pyrazo1-1-ylcarbonyl)-6-(trifluoromethyl)-, methyl ester]
1: plant injury rating, Grso (Grso; 5.6050 kg/ha) | plant injury rating, Sobe (Sobe; 0.0701 kg/ha) | plant injury rating, Sobe (Sobe; 0.2803 kg/ha) | plant injury rating, Bygr (Bygr; 5.6050 kg/ha) | plant injury rating, Mogl (Mogl; 0.2803 kg/ha) | plant injury rating, Grft (Grft; 5.6050 kg/ha) | plant injury rating, Cobu (Cobu; 0.2803 kg/ha)
0: plant injury rating, Prmi (Prmi; 0.0701 kg/ha) | plant injury rating, Prmi (Prmi; 0.2803 kg/ha) | plant injury rating, Prmi (Prmi; 1.1210 kg/ha) | plant injury rating, Prmi (Prmi; 5.6050 kg/ha) | plant injury rating, Rice (Rice; 0.0701 kg/ha) | plant injury rating, Rice (Rice; 0.2803 kg/ha) | plant injury rating, Rice (Rice; 1.1210 kg/ha) | plant injury rating, Rice (Rice; 5.6050 kg/ha) | plant injury rating, Corn (Corn; 0.0701 kg/ha) | plant injury rating, Corn (Corn; 0.2803 kg/ha) | plant injury rating, Grso (Grso; 0.2803 kg/ha) | plant injury rating, Grso (Grso; 1.1210 kg/ha) | plant injury rating, Whez (Whez; 0.0701 kg/ha) | plant injury rating, Whez (Whez; 0.2803 kg/ha) | plant injury rating, Whez (Whez; 1.1210 kg/ha) | plant injury rating, Whez (Whez; 5.6050 kg/ha) | plant injury rating, Bygr (Bygr; 0.0701 kg/ha) | plant injury rating, Bygr (Bygr; 0.2803 kg/ha) | plant injury rating, Bygr (Bygr; 1.1210 kg/ha) | plant injury rating, Grft (Grft; 0.0701 kg/ha) | plant injury rating, Grft (Grft; 0.2803 kg/ha) | plant injury rating, Grft (Grft; 1.1210 kg/ha) | plant injury rating, Cobu (Cobu; 0.0701 kg/ha)
50 to 74%: inhibition at 11200 g/ha (Cocklebur)
2: plant injury rating, Corn (Corn; 1.1210 kg/ha) | plant injury rating, Corn (Corn; 5.6050 kg/ha) | plant injury rating, Sobe (Sobe; 1.1210 kg/ha) | plant injury rating, Sobe (Sobe; 5.6050 kg/ha) | plant injury rating, Mogl (Mogl; 0.0701 kg/ha) | plant injury rating, Mogl (Mogl; 1.1210 kg/ha) | plant injury rating, Mogl (Mogl; 5.6050 kg/ha) | plant injury rating, Lacg (Lacg; 0.0701 kg/ha) | plant injury rating, Lacg (Lacg; 0.2803 kg/ha) | plant injury rating, Lacg (Lacg; 1.1210 kg/ha) | plant injury rating, Lacg (Lacg; 5.6050 kg/ha) | plant injury rating, Cobu (Cobu; 1.1210 kg/ha) | plant injury rating, Cobu (Cobu; 5.6050 kg/ha)
75 to 100%: inhibition at 11200 g/ha (Downy Brome) | inhibition at 11200 g/ha (Yellow Nutsedge) | inhibition at 11200 g/ha (Barnyardgrass) | inhibition at 11200 g/ha (Velvetleaf) | inhibition at 11200 g/ha (Morningglory)
